Reference: patent publication US7214689B2, “Isoquinoline compounds” (Les Laboratoires Servier, priority 2003, dated 2007)
Structures can show the parent of a compound that is named as a salt.

Assays:
MT2 receptor = molecular target: T1, MT2 receptor (Homo sapiens, UniProt P49286); assay: Binding to melatonin receptor MT2 (2-[125I]-iodomelatonin); details: 2-[125I]-iodomelatonin radioligand, triplicate
T1 sequence (P49286 1-362): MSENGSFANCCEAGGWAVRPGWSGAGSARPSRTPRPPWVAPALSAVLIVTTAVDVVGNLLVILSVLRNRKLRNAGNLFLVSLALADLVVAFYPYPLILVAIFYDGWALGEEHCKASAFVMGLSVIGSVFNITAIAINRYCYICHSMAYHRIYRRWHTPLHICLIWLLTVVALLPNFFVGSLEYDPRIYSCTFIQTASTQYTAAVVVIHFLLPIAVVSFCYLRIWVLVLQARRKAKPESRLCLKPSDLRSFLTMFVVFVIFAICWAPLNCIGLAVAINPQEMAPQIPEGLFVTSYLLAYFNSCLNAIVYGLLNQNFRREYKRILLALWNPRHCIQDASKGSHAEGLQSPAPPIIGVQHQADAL
Description: (§1) Study of Binding to Melatonin Receptors MT1 and MT2
(§2) The MT1 or MT2 receptor binding experiments are carried out using 2-[^125I]-iodomelatonin as reference radioligand. The radioactivity retained is determined using a liquid scintillation counter.
(§3) Competitive binding experiments are then carried out in triplicate using the various test compounds. A range of different concentrations is tested for each compound. The results enable the binding affinities (Ki) of the compounds tested to be determined.

MT1 receptor = MT1 receptor (Homo sapiens, UniProt P48039); assay: Binding to melatonin receptor MT1 (2-[125I]-iodomelatonin); details: 2-[125I]-iodomelatonin radioligand, triplicate
Description: as §1, §2, §3

Forced swimming test = format: in vivo; details: 40 minutes before the test
Description: The compounds of the invention are tested in a behavioural model, the forced swimming test.
The apparatus is a Plexiglas cylinder filled with water. The animals are tested individually for a session of 6 minutes. At the beginning of each test, the animal is placed in the centre of the cylinder. The period of immobility is recorded. Each animal is judged to be immobile when it ceases to struggle and remains immobile on the surface of the water only making movements that allow it to keep its head out of the water.
In particular, the compound of Example 9, administered at 2.5 mg/kg per os, causes the duration of immobility to be reduced from 102 seconds (control) to 57 seconds. The compound of Example 3, administered at 25 mg/kg per os, causes the duration of immobilisation to be reduced from 129 seconds (control) to 60 seconds.

Sequence of MT1 receptor (P48039 whole entry): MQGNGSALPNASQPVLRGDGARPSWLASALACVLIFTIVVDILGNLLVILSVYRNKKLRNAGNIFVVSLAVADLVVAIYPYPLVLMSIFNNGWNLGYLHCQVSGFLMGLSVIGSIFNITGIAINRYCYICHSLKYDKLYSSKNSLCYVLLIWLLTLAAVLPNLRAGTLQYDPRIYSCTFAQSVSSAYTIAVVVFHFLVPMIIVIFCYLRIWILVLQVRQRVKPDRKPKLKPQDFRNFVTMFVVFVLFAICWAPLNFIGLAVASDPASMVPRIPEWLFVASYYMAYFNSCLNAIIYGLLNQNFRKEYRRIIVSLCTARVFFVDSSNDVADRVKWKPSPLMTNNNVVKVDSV

SMILES	Ki (MT2 receptor)	Ki (MT1 receptor)	duration of immobility (Forced swimming test; 2.5 mg/kg per os, control 102 seconds)	duration of immobilisation (Forced swimming test; 25 mg/kg per os, control 129 seconds)
CCC(=O)NCCc1cncc2ccc(OC)cc12 [Example 10, N-[2-(6methoxy-4-isoquinolinyl)ethyl]propanamide hydrochloride]	1.14 nM	4.26 nM		
COc1ccc2cncc(CCNC(C)=O)c2c1.Cl [Example 9, N-[2-(6-methoxy-4-isoquinolinyl)ethyl]acetamide hydrochloride]	2.16 nM	9.12 nM	57 s	
CNC(=O)CCCc1cncc2ccc(OC)cc12 [Example 3, 4-(6-methoxy-4-isoquinolinyl)-N-methylbutanamide]	2.6 nM	3.8 nM		60 s
